This assay deals with T1, AmdP (Polymorphum gilvum, UniProt F2IXG8).
T1 construct: gene SL003B_3169; full length, 744 bp codon-adapted synthetic gene, pET-21a NdeI/XhoI, C-terminal His6 tag kept, E. coli BL21, Ni-NTA purified
T1 sequence (F2IXG8 1-247): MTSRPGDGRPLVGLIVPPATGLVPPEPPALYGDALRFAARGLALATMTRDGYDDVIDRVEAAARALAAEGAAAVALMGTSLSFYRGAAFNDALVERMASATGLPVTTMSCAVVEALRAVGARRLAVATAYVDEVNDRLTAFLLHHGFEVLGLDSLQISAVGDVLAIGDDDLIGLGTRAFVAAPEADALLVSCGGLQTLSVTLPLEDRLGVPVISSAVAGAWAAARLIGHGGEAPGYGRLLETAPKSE
The assay is described as follows: chiral GC of product after derivatisation. The note with it: 10 mM substrate, 50 mM Tris pH 7.5; substrate contained <4% racemic flurbiprofen. The format is biochemical.

We go through one compound from paper PMC4996985, “Sequence-Based Screening for Rare Enzymes: New Insights into the World of AMDases Reveal a Conserved Motif and 58 Novel Enzymes Clustering in Eight Distinct Families” (Frontiers in Microbiology, 2016).

In the case of `CC(C(=O)O)(C(=O)O)c1ccc(-c2ccccc2)c(F)c1` [2a, flurbiprofen malonate], the “chiral GC of product after derivatisation” value was “selectivity of all three AMDases was analyzed with aryl malonic acid derivates”.
